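Growth conditions: 96-well plates. Treatment: test compound, 48 hours, 5 concentrations. Analysis: linear interpolation between bracketing concentrations; unreached endpoints set to highest concentration. TGI: concentration producing complete growth inhibition.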
Legend:
Experiment in all cases: NCI tumour cell line growth inhibition, 48 h
HL-60(TB) leukemia = system: HL-60(TB) leukemia
LOX IMVI melanoma = system: LOX IMVI melanoma
SR leukemia = system: SR leukemia
TK-10 renal = system: TK-10 renal
IGROV1 ovarian = system: IGROV1 ovarian
LXFL 529 NSCLC = system: LXFL 529 NSCLC
EKVX NSCLC = system: EKVX NSCLC
MALME-3M melanoma = system: MALME-3M melanoma
SN12C renal = system: SN12C renal
OVCAR-3 ovarian = system: OVCAR-3 ovarian
DMS 273 small cell lung = system: DMS 273 small cell lung
HCT-116 colon = system: HCT-116 colon
K-562 leukemia = system: K-562 leukemia
SF-295 CNS = system: SF-295 CNS
RXF 393 renal = system: RXF 393 renal
MOLT-4 leukemia = system: MOLT-4 leukemia
ACHN renal = system: ACHN renal
OVCAR-5 ovarian = system: OVCAR-5 ovarian
RPMI-8226 leukemia = system: RPMI-8226 leukemia
HOP-92 NSCLC = system: HOP-92 NSCLC

**Q.** What does the source list for O=c1n(CC2CO2)c2ccccc2n1CC1CS1 (stereo not given)?
**A.** TGI (HL-60(TB) leukemia): 87.7 µM; TGI (LOX IMVI melanoma): > 100 µM; TGI (SR leukemia): > 100 µM; TGI (TK-10 renal): > 100 µM; TGI (IGROV1 ovarian): > 100 µM; TGI (LXFL 529 NSCLC): > 100 µM; TGI (EKVX NSCLC): > 100 µM; TGI (MALME-3M melanoma): > 100 µM; TGI (SN12C renal): > 100 µM; TGI (OVCAR-3 ovarian): > 100 µM; TGI (DMS 273 small cell lung): > 100 µM; TGI (HCT-116 colon): > 100 µM; TGI (K-562 leukemia): > 100 µM; TGI (SF-295 CNS): > 100 µM; TGI (RXF 393 renal): > 100 µM; TGI (MOLT-4 leukemia): > 100 µM; TGI (ACHN renal): > 100 µM; TGI (OVCAR-5 ovarian): > 100 µM; TGI (RPMI-8226 leukemia): > 100 µM; TGI (HOP-92 NSCLC): > 100 µM

**Q.** For COc1ccc(Nc2cnc3cc(N)ccc3n2)cc1OC, which TGI (HL-60(TB) leukemia) is on record?
**A.** 62.1 µM

**Q.** And the TGI (LOX IMVI melanoma)?
**A.** > 100 µM

**Q.** What about the TGI (SR leukemia) of the same compound?
**A.** > 100 µM

**Q.** And the TGI (TK-10 renal)?
**A.** > 100 µM

**Q.** What about the TGI (IGROV1 ovarian) of the same compound?
**A.** > 100 µM

**Q.** And the TGI (LXFL 529 NSCLC)?
**A.** > 100 µM

**Q.** What about the TGI (EKVX NSCLC) of the same compound?
**A.** > 100 µM

**Q.** And the TGI (MALME-3M melanoma)?
**A.** > 100 µM

**Q.** What about the TGI (SN12C renal) of the same compound?
**A.** > 100 µM

**Q.** And the TGI (OVCAR-3 ovarian)?
**A.** > 100 µM

**Q.** What about the TGI (DMS 273 small cell lung) of the same compound?
**A.** > 100 µM

**Q.** What about the TGI (HCT-116 colon) of the same compound?
**A.** > 100 µM

**Q.** And the TGI (K-562 leukemia)?
**A.** > 100 µM

**Q.** What about the TGI (SF-295 CNS) of the same compound?
**A.** > 100 µM

**Q.** And the TGI (RXF 393 renal)?
**A.** > 100 µM

**Q.** What about the TGI (MOLT-4 leukemia) of the same compound?
**A.** > 100 µM

**Q.** And the TGI (ACHN renal)?
**A.** > 100 µM

**Q.** What about the TGI (OVCAR-5 ovarian) of the same compound?
**A.** > 100 µM

**Q.** And the TGI (RPMI-8226 leukemia)?
**A.** 86.2 µM

**Q.** What about the TGI (HOP-92 NSCLC) of the same compound?
**A.** 42.5 µM
